Counter-ions that a name gives are not always drawn.
Assays:
[1] = tested on: constitutive active colorectal cancer cell (CRC) Wnt pathway; experiment: HCT116 TOPFlash cellular reporter assay (Super TopFlash luciferase), constitutive active Wnt pathway; format: cell-based; conditions: HCT116 TOP reporter cells, 36 hours incubation, luciferase expression
Procedure: In order to discover and characterize small molecules which inhibit the constitutive active colorectal cancer cell (CRC) Wnt pathway, a cellular reporter assay was employed. […] Stable transfectants were generated by cotransfection with pcDNA3 and selection of stable transfected cells with 1 mg/ml G418.

[2] = tested on: HCT116 FOP control reporter cell line; experiment: HCT116 FOPFlash control reporter assay (FOP control vector, non-functional TCF elements); format: cell-based; conditions: HCT116 FOP control reporter cells, 36 hours incubation, luciferase expression
From the text: In a parallel approach, HCT116 cells were cotransfected with the FOP control vector and pcDNA3. The FOP vector is identical to the TOP construct, but it contains instead of functional TCF elements a randomized, non-functional sequence. For this transfection a stable transfected cell line was generated as well.

| SMILES | IC50 ([1]; Homo sapiens, HCT-116, 36 h) | IC50 ([2]; Homo sapiens, HCT-116, 36 h) | IC50 [1] | IC50 [2] |
| --- | --- | --- | --- | --- |
| O=C(CN1CCOCC1)Nc1cc(C(=O)Nc2ccc(-c3ccccc3F)nc2)ccc1OC(F)F [Example 237, 4-(difluoromethoxy)-N-[6-(2-fluorophenyl)pyridin-3-yl]-3-[(morpholin-4-ylacetyl)amino]benzamide] | 139 nM | 13000 nM | – | – |
| O=C(Cc1ccccn1)Nc1cc(C(=O)Nc2ccc(-c3ccccc3F)nc2)ccc1OC1CC1 [Example 238, 4-(cyclopropyloxy)-N-[6-(2-fluorophenyl)pyridin-3-yl]-3-[(pyridin-2-ylacetyl)amino]benzamide] | 1750 nM | ≥ 50000 nM | – | – |
| O=C(CN1CCOCC1)Nc1cc(C(=O)Nc2nnc(-c3ccccc3)s2)ccc1OC(F)F [Example 239, 4-(difluoromethoxy)-3-[(morpholin-4-ylacetyl)amino]-N-(5-phenyl-1,3,4-thiadiazol-2-yl)benzamide] | 2890 nM | ≥ 50000 nM | – | – |
| O=C(CN1CC2CCC(C1)O2)Nc1cc(C(=O)Nc2nnc(-c3ccccc3)s2)ccc1OC(F)(F)F [Example 240, 3-[(8-oxa-3-azabicyclo[3.2.1]oct-3-ylacetyl)amino]-N-(5-phenyl-1,3,4-thiadiazol-2-yl)-4-(trifluoromethoxy)benzamide] | 1180 nM | ≥ 50000 nM | – | – |
| CC(C(=O)Nc1cc(C(=O)Nc2ccc(-c3cc(F)cc(F)c3)nc2)ccc1OC(F)(F)F)N1CCOCC1 (centres unmarked) [Example 245, N-[6-(3,5-difluorophenyl)pyridin-3-yl]-3-{[2-(morpholin-4-yl)propanoyl]amino}-4-(trifluoromethoxy)benzamide] | – | – | 7.85 nM | 5200 nM |
| CC(C(=O)Nc1cc(C(=O)Nc2ccc(-c3cc(F)cc(F)c3)nc2)ccc1OC(F)(F)F)N1CCOCC1 (centres unmarked) [Example 246, N-[6-(3,5-difluorophenyl)pyridin-3-yl]-3-{[2-(morpholin-4-yl)propanoyl]amino}-4-(trifluoromethoxy)benzamide] | – | – | 47.5 nM | 27800 nM |
| CC(C(=O)Nc1cc(C(=O)Nc2ccc(-c3ccccc3F)nc2)ccc1OC(F)(F)F)N1CCN(C2CC2)CC1 (centres unmarked) [Example 249, 3-{[2-(4-cyclopropylpiperazin-1-yl)propanoyl]amino}-N-[6-(2-fluorophenyl)pyridin-3-yl]-4-(trifluoromethoxy)benzamide] | – | – | 198 nM | 38000 nM |
| CC(C(=O)Nc1cc(C(=O)Nc2ccc(-c3ccccc3F)nc2)ccc1OC(F)(F)F)N1CCN(C2CC2)CC1 (centres unmarked) [Example 250, 3-{[2-(4-cyclopropylpiperazin-1-yl)propanoyl]amino}-N-[6-(2-fluorophenyl)pyridin-3-yl]-4-(trifluoromethoxy)benzamide] | – | – | 192 nM | 31000 nM |
| CN(C)C1(C(=O)Nc2cc(C(=O)Nc3ccc(-c4cc(F)cc(F)c4)nc3)ccc2OC(F)(F)F)CC1 [Example 251, N-[6-(3,5-difluorophenyl)pyridin-3-yl]-3-({[1-(dimethylamino)cyclopropyl]carbonyl}amino)-4-(trifluoromethoxy)benzamide] | 220 nM | 16000 nM | – | – |
| O=C(CN1CCOCC1)Nc1cc(NC(=O)c2cnc(-c3ccccc3)s2)ccc1OC(F)(F)F [Example 252, N-{3-[(morpholin-4-ylacetyl)amino]-4-(trifluoromethoxy)phenyl}-2-phenyl-1,3-thiazole-5-carboxamide] | 2300 nM | ≥ 50000 nM | – | – |
| O=C(CN1CCN(C2CC2)CC1)Nc1cc(C(=O)Nc2nnc(-c3ccccc3)s2)ccc1Br [Example 253, 4-bromo-3-{[(4-cyclopropylpiperazin-1-yl)acetyl]amino}-N-(5-phenyl-1,3,4-thiadiazol-2-yl)benzamide] | 4040 nM | ≥ 50000 nM | – | – |
| O=C(CN1C[C@@H]2C[C@H]1CO2)Nc1cc(C(=O)Nc2nnc(-c3ccccc3)s2)ccc1OC(F)(F)F [Example 254, 3-{[(1S,4S)-2-oxa-5-azabicyclo[2.2.1]hept-5-ylacetyl]amino}-N-(5-phenyl-1,3,4-thiadiazol-2-yl)-4-(trifluoromethoxy)benzamide] | 4340 nM | ≥ 50000 nM | – | – |
| CC(C(=O)Nc1cc(NC(=O)c2cnc(-c3ccccc3)s2)ccc1OC(F)(F)F)N1CCOCC1 (centres unmarked) [Example 255, N-[3-{[2-(morpholin-4-yl)propanoyl]amino}-4-(trifluoromethoxy)phenyl]-2-phenyl-1,3-thiazole-5-carboxamide] | 2100 nM | ≥ 50000 nM | – | – |
| COc1ccc(NC(=O)c2ccc(-c3ccccc3)nc2)cc1NC(=O)C1(N2CCOCC2)CC1 [Example 256, N-[4-methoxy-3-({[1-(morpholin-4-yl)cyclopropyl]carbonyl}amino)phenyl]-6-phenylnicotinamide] | 240 nM | ≥ 50000 nM | – | – |
| Cc1ccccc1-c1nnc(NC(=O)c2ccc(OC(F)(F)F)c(NC(=O)C3(N4CCOCC4)CC3)c2)s1 [Example 257, N-[5-(2-methylphenyl)-1,3,4-thiadiazol-2-yl]-3-({[1-(morpholin-4-yl)cyclopropyl]carbonyl}amino)-4-(trifluoromethoxy)benzamide] | 17 nM | ≥ 50000 nM | – | – |
| COCc1ccc(C(=O)Nc2nnc(-c3ccccc3C)s2)cc1NC(=O)C1(N2CCN(C)CC2)CC1 [Example 258, 4-(methoxymethyl)-N-[5-(2-methylphenyl)-1,3,4-thiadiazol-2-yl]-3-({[1-(4-methylpiperazin-1-yl)cyclopropyl]carbonyl}amino)benzamide trifluoroacetate (1:1)] | 45.5 nM | 24000 nM | – | – |
| CN1CCN(CC(=O)Nc2cc(C(=O)Nc3nnc(-c4ccccc4)s3)ccc2OCC2CC2)CC1 [Example 259, 4-(cyclopropylmethoxy)-3-{[(4-methylpiperazin-1-yl)acetyl]amino}-N-(5-phenyl-1,3,4-thiadiazol-2-yl)benzamide] | 119 nM | ≥ 50000 nM | – | – |
| COCCN(C)C1(C(=O)Nc2cc(C(=O)Nc3nnc(-c4ccccc4)s3)ccc2OC(F)(F)F)CC1 [Example 261, 3-[({1-[(2-methoxyethyl)(methyl)amino]cyclopropyl}carbonyl)amino]-N-(5-phenyl-1,3,4-thiadiazol-2-yl)-4-(trifluoromethoxy)benzamide] | 150 nM | ≥ 50000 nM | – | – |
| O=C(Nc1nnc(-c2ccccc2)s1)c1ccc(Cl)c(NC(=O)C2(N3CCN(C4CC4)CC3)CC2)c1 [Example 262, 4-chloro-3-({[1-(4-cyclopropylpiperazin-1-yl)cyclopropyl]carbonyl}amino)-N-(5-phenyl-1,3,4-thiadiazol-2-yl)benzamide trifluoroacetate (1:1)] | 195 nM | ≥ 50000 nM | – | – |
| Nc1ccc(-c2nnc(NC(=O)c3ccc(OC(F)(F)F)c(NC(=O)CN4CCOCC4)c3)s2)cc1 [Example 263, N-[5-(4-aminophenyl)-1,3,4-thiadiazol-2-yl]-3-[(morpholin-4-ylacetyl)amino]-4-(trifluoromethoxy)benzamide] | 250 nM | ≥ 50000 nM | – | – |
| Cc1ccccc1-c1nnc(NC(=O)c2ccc(OC3CC3)c(NC(=O)CN3CCN(C)CC3)c2)s1 [Example 264, 4-(cyclopropyloxy)-N-[5-(2-methylphenyl)-1,3,4-thiadiazol-2-yl]-3-{[(4-methylpiperazin-1-yl)acetyl]amino}benzamide] | 255 nM | ≥ 50000 nM | – | – |
| O=C(CN1CCN(C2CC2)CC1)Nc1cc(C(=O)Nc2nnc(-c3ccccc3)s2)ccc1OCC1CC1 [Example 265, 4-(cyclopropylmethoxy)-3-{[(4-cyclopropylpiperazin-1-yl)acetyl]amino}-N-(5-phenyl-1,3,4-thiadiazol-2-yl)benzamide] | 320 nM | ≥ 50000 nM | – | – |
| Cc1ccccc1-c1nnc(NC(=O)c2ccc(OC3CC3)c(NC(=O)CN3CCOCC3)c2)s1 [Example 266, 4-(cyclopropyloxy)-N-[5-(2-methylphenyl)-1,3,4-thiadiazol-2-yl]-3-[(morpholin-4-ylacetyl)amino]benzamide] | 345 nM | ≥ 50000 nM | – | – |
| CN1CCN(CC(=O)Nc2cc(C(=O)Nc3nnc(-c4cccc(C#N)c4)s3)ccc2OC(F)(F)F)CC1 [Example 267, N-[5-(3-cyanophenyl)-1,3,4-thiadiazol-2-yl]-3-{[(4-methylpiperazin-1-yl)acetyl]amino}-4-(trifluoromethoxy)benzamide] | 365 nM | ≥ 50000 nM | – | – |
| O=C(CN1CCOCC1)Nc1cc(C(=O)Nc2nnc(-c3ccccc3)s2)ccc1OCC1CC1 [Example 268, 4-(cyclopropylmethoxy)-3-[(morpholin-4-ylacetyl)amino]-N-(5-phenyl-1,3,4-thiadiazol-2-yl)benzamide] | 365 nM | ≥ 50000 nM | – | – |
| CCc1ccccc1-c1nnc(NC(=O)c2ccc(OC(F)(F)F)c(NC(=O)CN3CCOCC3)c2)s1 [Example 269, N-[5-(2-ethylphenyl)-1,3,4-thiadiazol-2-yl]-3-[(morpholin-4-ylacetyl)amino]-4-(trifluoromethoxy)benzamide] | 375 nM | ≥ 50000 nM | – | – |
| CN1CCN(CC(=O)Nc2cc(C(=O)Nc3nnc(-c4ccccc4C(F)(F)F)s3)ccc2OC(F)(F)F)CC1 [Example 270, 3-{[(4-methylpiperazin-1-yl)acetyl]amino}-4-(trifluoromethoxy)-N-{5-[2-(trifluoromethyl)phenyl]-1,3,4-thiadiazol-2-yl}benzamide] | 390 nM | ≥ 50000 nM | – | – |
| Cc1ccccc1-c1nnc(NC(=O)c2ccc(OC(F)(F)F)c(NC(=O)C3(N4CCN(C)CC4)CC3)c2)s1 [Example 271, N-[5-(2-methylphenyl)-1,3,4-thiadiazol-2-yl]-3-({[1-(4-methylpiperazin-1-yl)cyclopropyl]carbonyl}amino)-4-(trifluoromethoxy)benzamide] | 480 nM | ≥ 50000 nM | – | – |

From patent US10130633B2, “Compounds” (BAYER PHARMA AKTIENGESELLSCHAFT, priority 2013, dated 2018)
